Molecules are shown by their SMILES.

From patent publication US20240208992A1, “MACROCYCLES AS CFTR MODULATORS” (Idorsia Pharmaceuticals Ltd, priority 2021, published 2024) come the findings set out here.

This experiment addresses human F508del-CFTR (Homo sapiens, UniProt P13569, DEL508-508). Briefly: F508del-CFTR cell surface expression (corrector activity), DiscoveRx ß-galactosidase complementation chemiluminescence assay in recombinant U2OS cell line.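 As to all read-outs here: U2OS cells co-expressing ProLink-tagged F508del-CFTR and a membrane-anchored enzyme acceptor, where more surface CFTR restores β-galactosidase activity measured by chemiluminescence.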 The settings on record: U2OS cell line, 16h compound incubation; for EC50: EC50, F508del-CFTR cell surface expression, geomean values; for Emax: U2OS, in relation to the Emax of the corrector lumacaftor (=100%), arithmetic mean values.

Sequence of human F508del-CFTR (P13569 with tags, fused parts or gaps DEL508-508): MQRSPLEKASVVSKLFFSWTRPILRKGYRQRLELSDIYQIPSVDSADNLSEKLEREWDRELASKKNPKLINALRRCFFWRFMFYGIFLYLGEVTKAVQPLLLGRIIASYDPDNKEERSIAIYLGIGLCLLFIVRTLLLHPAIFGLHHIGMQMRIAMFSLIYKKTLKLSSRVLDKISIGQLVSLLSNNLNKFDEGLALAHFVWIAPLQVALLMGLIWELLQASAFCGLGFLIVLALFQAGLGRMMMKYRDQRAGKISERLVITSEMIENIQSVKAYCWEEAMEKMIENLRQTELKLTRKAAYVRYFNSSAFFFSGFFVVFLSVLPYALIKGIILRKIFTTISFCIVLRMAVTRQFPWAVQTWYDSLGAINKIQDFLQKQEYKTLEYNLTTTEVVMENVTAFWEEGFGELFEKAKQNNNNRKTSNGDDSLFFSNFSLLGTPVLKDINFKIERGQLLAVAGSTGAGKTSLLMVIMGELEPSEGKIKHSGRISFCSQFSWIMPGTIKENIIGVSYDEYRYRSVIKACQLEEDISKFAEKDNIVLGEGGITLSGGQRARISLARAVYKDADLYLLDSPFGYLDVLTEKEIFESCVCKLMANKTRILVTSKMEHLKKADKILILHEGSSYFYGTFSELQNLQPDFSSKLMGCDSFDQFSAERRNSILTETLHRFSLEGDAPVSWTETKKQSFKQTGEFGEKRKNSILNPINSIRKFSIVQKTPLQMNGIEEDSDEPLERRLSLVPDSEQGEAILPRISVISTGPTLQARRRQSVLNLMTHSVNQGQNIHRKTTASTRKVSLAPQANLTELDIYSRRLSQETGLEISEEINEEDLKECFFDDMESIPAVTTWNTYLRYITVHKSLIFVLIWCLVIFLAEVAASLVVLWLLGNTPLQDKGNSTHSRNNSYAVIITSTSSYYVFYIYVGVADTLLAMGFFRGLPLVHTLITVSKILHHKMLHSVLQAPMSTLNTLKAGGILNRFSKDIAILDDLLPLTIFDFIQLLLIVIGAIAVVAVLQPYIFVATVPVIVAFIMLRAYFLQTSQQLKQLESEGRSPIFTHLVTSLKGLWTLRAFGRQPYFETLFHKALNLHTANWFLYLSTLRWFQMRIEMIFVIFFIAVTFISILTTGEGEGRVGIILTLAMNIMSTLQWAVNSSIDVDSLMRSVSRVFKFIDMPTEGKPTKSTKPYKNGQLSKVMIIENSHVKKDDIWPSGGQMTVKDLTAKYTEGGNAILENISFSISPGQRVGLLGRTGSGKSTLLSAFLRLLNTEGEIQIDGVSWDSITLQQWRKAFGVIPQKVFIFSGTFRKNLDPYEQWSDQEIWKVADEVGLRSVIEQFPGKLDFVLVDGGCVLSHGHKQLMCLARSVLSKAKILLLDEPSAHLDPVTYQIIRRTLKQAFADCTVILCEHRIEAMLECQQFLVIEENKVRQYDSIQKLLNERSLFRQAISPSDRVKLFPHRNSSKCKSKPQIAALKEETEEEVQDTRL

As usually defined, the EC50 is the midpoint of the concentration-response curve. As a reminder, the Emax is the size of the effect at its maximum, as opposed to the concentration needed. On to `[2H]C([2H])([2H])Oc1cccc2c1C(=O)N[C@H](C(=O)NCCc1cccc(OC)c1)CC(=O)N(C)[C@@H](CC(C)C)C(=O)N(CCC1CCCCC1)CC(=O)N[C@H](Cc1ccccc1)CO2` [Example 243, (3R,9S,13S)-3-benzyl-7-(2-cyclohexylethyl)-9-isobutyl-16-(methoxy-d3)-N-(3-methoxyphenethyl)-10-methyl-5,8,11,15-tetraoxo-2,3,4,5,6,7,8,9,10,11,12,13,14,15-tetradecahydrobenzo[p][1]oxa[4,7,10,14]tetraazacycloheptadecine-13-carboxamide], for which the concentration giving a half-maximal response (EC50) worked out at 0.181 µM and the Emax is 232%.
The corresponding values for `[2H]C([2H])([2H])Oc1cccc(CCNC(=O)[C@@H]2CC(=O)N(C)[C@@H](CC(C)C)C(=O)N(CCC3CCCCC3)CC(=O)N[C@H](Cc3ccccc3)COc3cccc(OC([2H])([2H])[2H])c3C(=O)N2)c1` [Example 244, (3R,9S,13S)-3-benzyl-7-(2-cyclohexylethyl)-9-isobutyl-16-(methoxy-d3)-N-(3-(methoxy-d3)phenethyl)-10-methyl-5,8,11,15-tetraoxo-2,3,4,5,6,7,8,9,10,11,12,13,14,15-tetradecahydrobenzo[p][1]oxa[4,7,10,14]tetraazacycloheptadecine-13-carboxamide] are 0.177 µM and 239%.
Consider `COc1ccc2c(c1)C(=O)N[C@H](C(=O)NCCc1ccc3c(c1)OCCC3)CC(=O)N(C)[C@@H](CC(C)C)C(=O)N(C)CC(=O)N[C@H](Cc1ccccc1)CO2` [Example 245, (3R,9S,13S)-3-benzyl-N-(2-(chroman-7-yl)ethyl)-9-isobutyl-17-methoxy-7,10-dimethyl-5,8,11,15-tetraoxo-2,3,4,5,6,7,8,9,10,11,12,13,14,15-tetradecahydrobenzo[p][1]oxa[4,7,10,14]tetraazacycloheptadecine-13-carboxamide], for which the 50% effective concentration (EC50) is 0.26 µM and the Emax stood at 174%.
For `Cc1cccc2c1C(=O)N[C@H](C(=O)NCCc1ccc3c(c1)OCO3)CC(=O)N(C)[C@@H](CC(C)C)C(=O)N(CCC1CCCCC1)CC(=O)N[C@H](Cc1ccccc1)CO2` [Example 246, (3R,9S,13S)-N-(2-(benzo[d][1,3]dioxol-5-yl)ethyl)-3-benzyl-7-(2-cyclohexylethyl)-9-isobutyl-10,16-dimethyl-5,8,11,15-tetraoxo-2,3,4,5,6,7,8,9,10,11,12,13,14,15-tetradecahydrobenzo[p][1]oxa[4,7,10,14]tetraazacycloheptadecine-13-carboxamide], the EC50 was found to be 0.14 µM and the maximal response (Emax) stood at 105%.
On to `COc1cccc(CCNC(=O)[C@@H]2CC(=O)N(C)[C@@H](CC(C)C)C(=O)N(CCC3CCCCC3)CC(=O)N[C@H](Cc3ccccc3)COc3cccc(C)c3C(=O)N2)c1` [Example 247, (3R,9S,13S)-3-benzyl-7-(2-cyclohexylethyl)-9-isobutyl-N-(3-methoxyphenethyl)-10,16-dimethyl-5,8,11,15-tetraoxo-2,3,4,5,6,7,8,9,10,11,12,13,14,15-tetradecahydrobenzo[p][1]oxa[4,7,10,14]tetraazacycloheptadecine-13-carboxamide], for which the concentration for a half-maximal effect (EC50) is 0.146 µM and the maximal effect (Emax) came to 111%.
With `COc1ccc2c(c1)C(=O)N[C@H](C(=O)NCCc1ccc3c(c1)OCO3)CC(=O)N(C)[C@@H](CC(C)C)C(=O)N(CCC1CCCCC1)CC(=O)N[C@H](Cc1ccccc1)CO2` [Example 248, (3R,9S,13S)-N-(2-(benzo[d][1,3]dioxol-5-yl)ethyl)-3-benzyl-7-(2-cyclohexylethyl)-9-isobutyl-17-methoxy-10-methyl-5,8,11,15-tetraoxo-2,3,4,5,6,7,8,9,10,11,12,13,14,15-tetradecahydrobenzo[p][1]oxa[4,7,10,14]tetraazacycloheptadecine-13-carboxamide], the half-maximal effective concentration (EC50) was found to be 0.106 µM and the Emax was determined as 191%.
As for `COc1cccc(CCNC(=O)[C@@H]2CC(=O)N(C)[C@@H](CC(C)C)C(=O)N(CCC3CCCCC3)CC(=O)N[C@H](Cc3ccccc3)COc3ccc(OC)cc3C(=O)N2)c1` [Example 249, (3R,9S,13S)-3-benzyl-7-(2-cyclohexylethyl)-9-isobutyl-17-methoxy-N-(3-methoxyphenethyl)-10-methyl-5,8,11,15-tetraoxo-2,3,4,5,6,7,8,9,10,11,12,13,14,15-tetradecahydrobenzo[p][1]oxa[4,7,10,14]tetraazacycloheptadecine-13-carboxamide], the EC50 turned out to be 0.116 µM and the Emax is 175%.
The corresponding values for `CC(C)C[C@H]1C(=O)N(CCC2CCCCC2)CC(=O)N[C@H](Cc2ccccc2)COc2cc3ccccc3cc2C(=O)N[C@H](C(=O)NCCc2ccc3c(c2)OCO3)CC(=O)N1C` [Example 250, (3R,9S,13S)-N-(2-(benzo[d][1,3]dioxol-5-yl)ethyl)-3-benzyl-7-(2-cyclohexylethyl)-9-isobutyl-10-methyl-5,8,11,15-tetraoxo-2,3,4,5,6,7,8,9,10,11,12,13,14,15-tetradecahydronaphtho[2,3-p][1]oxa[4,7,10,14]tetraazacycloheptadecine-13-carboxamide] are 0.086 µM and 160%.
For `COc1cccc(CCNC(=O)[C@@H]2CC(=O)N(C)[C@@H](CC(C)C)C(=O)N(CCC3CCCCC3)CC(=O)N[C@H](Cc3ccccc3)COc3cc4ccccc4cc3C(=O)N2)c1` [Example 251, (3R,9S,13S)-3-benzyl-7-(2-cyclohexylethyl)-9-isobutyl-N-(3-methoxyphenethyl)-10-methyl-5,8,11,15-tetraoxo-2,3,4,5,6,7,8,9,10,11,12,13,14,15-tetradecahydronaphtho[2,3-p][1]oxa[4,7,10,14]tetraazacycloheptadecine-13-carboxamide], the concentration giving a half-maximal response (EC50) was determined as 0.083 µM and the Emax worked out at 159%.
In the case of `CCc1ccc(CCNC(=O)[C@@H]2CC(=O)N(C)[C@@H](CC(C)C)C(=O)N(C)CC(=O)N[C@H](Cc3ccccc3)COc3ccncc3C(=O)N2)cc1` [Example 252, (3R,9S,13S)-3-benzyl-N-(4-ethylphenethyl)-9-isobutyl-7,10-dimethyl-5,8,11,15-tetraoxo-2,3,4,5,6,7,8,9,10,11,12,13,14,15-tetradecahydropyrido[3,4-p][1]oxa[4,7,10,14]tetraazacycloheptadecine-13-carboxamide], the 50% effective concentration (EC50) was 0.888 µM and the Emax worked out at 111%.
The like results for `CC(C)C[C@H]1C(=O)N(CCC2CCCCC2)CC(=O)N[C@H](Cc2ccccc2)COc2ccc(Cl)cc2C(=O)N[C@H](C(=O)NCCc2ccc3c(c2)OCO3)CC(=O)N1C` [Example 253, (3R,9S,13S)-N-(2-(benzo[d][1,3]dioxol-5-yl)ethyl)-3-benzyl-17-chloro-7-(2-cyclohexylethyl)-9-isobutyl-10-methyl-5,8,11,15-tetraoxo-2,3,4,5,6,7,8,9,10,11,12,13,14,15-tetradecahydrobenzo[p][1]oxa[4,7,10,14]tetraazacycloheptadecine-13-carboxamide] were, in that order, 0.088 µM and 136%.
On to `COc1cccc(CCNC(=O)[C@@H]2CC(=O)N(C)[C@@H](CC(C)C)C(=O)N(CCC3CCCCC3)CC(=O)N[C@H](Cc3ccccc3)COc3ccc(Cl)cc3C(=O)N2)c1` [Example 254, (3R,9S,13S)-3-benzyl-17-chloro-7-(2-cyclohexylethyl)-9-isobutyl-N-(3-methoxyphenethyl)-10-methyl-5,8,11,15-tetraoxo-2,3,4,5,6,7,8,9,10,11,12,13,14,15-tetradecahydrobenzo[p][1]oxa[4,7,10,14]tetraazacycloheptadecine-13-carboxamide], for which the half-maximal effective concentration (EC50) is 0.102 µM and the Emax amounted to 152%.
